# Like-named read-outs stand apart in the source and are kept apart here.
# Columns and labels:
# Type in all cases: cell-based
# [1] = tested on: microorganisms with acquired resistance; assay: microbe, parasite or virus in culture; settings: for Peptide MIC Alone: Tobramycin section; for FIC: peptide + Tobramycin
# E. faecalis = E. faecalis strain EFS002
# E. faecium = settings: for Peptide MIC values: agarose dilution
# E. coli = settings: for Peptide MIC values: agarose dilution
# S. marcescens = settings: for Peptide MIC values: agarose dilution
# bacterial isolates = assay: microbe, parasite or virus in culture
# S. pneumoniae = assay: Agarose dilution assay (MIC); settings: for MIC: S. pneumoniae strain SBSPN3; for Peptide MIC values: agarose dilution
# S. aureus = settings: for MIC: S. aureus strain SA004; for Peptide MIC values: agarose dilution
# H. influenzae = assay: Agarose dilution assay (MIC); settings: H. influenzae strain HIN002
# [2] = tested on: inherently resistant microorganisms; assay: microbe, parasite or virus in culture
# P. vulgaris = assay: Agarose dilution assay (MIC); settings: agarose dilution; P. vulgaris ATCC 13315
# P. aeruginosa = settings: for Peptide MIC values: agarose dilution
# S. maltophilia = S. maltophilia strain SMA002
# E. cloacae = E. cloacae strain ECL007
# A. calcoaceticus = A. calcoaceticus strain AC001
# S. epidermidis = S. epidermidis strain SE010
# K. pneumoniae = K. pneumoniae strain KP002
# [3] = E. coli SBECO2, Mupirocin section
# [4] = S. aureus SA025 (also SA025 MRSA)
# [5] = peptide + Mupirocin, E. coli SBECO2
sequence,measurement,setting,value
ILKKWPWWPWK [MBI 11G13CN],Peptide MIC + Tobramycin,[1]; A. baumannii ABI001,32 µg/mL
same,Tobramycin MIC + Peptide,[1]; A. baumannii ABI001,4 µg/mL
same,Peptide MIC Alone,[1]; A. baumannii ABI001,128 µg/mL
same,Peptide MIC,"[1]; E. faecium, combination with Mupirocin, in µg/mL",32
same,Peptide MIC + Tobramycin,[1]; P. aeruginosa PA022,16 µg/mL
same,Tobramycin MIC + Peptide,[1]; P. aeruginosa PA022,4 µg/mL
same,Peptide MIC Alone,[1]; P. aeruginosa PA022,>128 µg/mL
same,FIC,[1]; A. baumannii ABI001,0.50
same,FIC,[1]; P. aeruginosa PA022,0.56
same,MIC,E. faecalis,64 µg/mL
same,MIC,E. faecium; E. faecium strain EFM002,16 µg/mL
same,Peptide MIC values,E. faecium,32 µg/mL
same,MIC,E. coli; E. coli strain ECO002,32 µg/mL
same,MIC,E. coli; E. coli strain SBECO3,32 µg/mL
same,Peptide MIC values,E. coli; E. coli ATCC 25922,64 µg/mL
same,Peptide MIC values,E. coli; E. coli ESS,32 µg/mL
same,Peptide MIC values,E. coli; E. coli NCTC 10418,16 µg/mL
same,MIC,S. marcescens; S. marcescens strain SBSM1,>128 µg/mL
same,Peptide MIC values,S. marcescens; S. marcescens SM76,>128 µg/mL
same,Peptide MIC values,S. marcescens; S. marcescens SM82,>128 µg/mL
same,Peptide MIC + Tobramycin,bacterial isolates; A. baumannii ABI001,32 µg/mL
same,Tobramycin MIC + Peptide,bacterial isolates; A. baumannii ABI001,4 µg/mL
same,Peptide MIC Alone,"bacterial isolates; A. baumannii ABI001, Tobramycin section",128 µg/mL
same,Mupirocin MIC + Peptide,bacterial isolates; E. coli ECO5,30 µg/mL
same,Peptide MIC + Mupirocin,bacterial isolates; E. coli ECO5,8 µg/mL
same,Peptide MIC Alone,"bacterial isolates; E. coli ECO5, Mupirocin section",64 µg/mL
same,Mupirocin MIC + Peptide,bacterial isolates; E. coli SBECO2,30 µg/mL
same,Peptide MIC + Mupirocin,bacterial isolates; E. coli SBECO2,8 µg/mL
same,Peptide MIC Alone,bacterial isolates; [3],64 µg/mL
same,Peptide MIC + Tobramycin,bacterial isolates; P. aeruginosa PA022,16 µg/mL
same,Tobramycin MIC + Peptide,bacterial isolates; P. aeruginosa PA022,4 µg/mL
same,Peptide MIC Alone,"bacterial isolates; P. aeruginosa PA022, Tobramycin section",>128 µg/mL
same,Peptide MIC + Tobramycin,bacterial isolates; [4],2 µg/mL
same,Tobramycin MIC + Peptide,bacterial isolates; [4],0.125 µg/mL
same,Peptide MIC Alone,"bacterial isolates; S. aureus SA025 (also SA025 MRSA), Tobramycin section",4 µg/mL
same,Peptide MIC + Tobramycin,bacterial isolates; S. maltophilia SMA029,0.125 µg/mL
same,Tobramycin MIC + Peptide,bacterial isolates; S. maltophilia SMA029,64 µg/mL
same,Peptide MIC Alone,"bacterial isolates; S. maltophilia SMA029, Tobramycin section",>128 µg/mL
same,Peptide MIC + Tobramycin,bacterial isolates; S. maltophilia SMA030,0.125 µg/mL
same,Tobramycin MIC + Peptide,bacterial isolates; S. maltophilia SMA030,64 µg/mL
same,Peptide MIC Alone,"bacterial isolates; S. maltophilia SMA030, Tobramycin section",>128 µg/mL
same,FIC,"bacterial isolates; peptide + Mupirocin, E. coli ECO5",0.43
same,FIC,bacterial isolates; [5],0.16
same,FIC,"bacterial isolates; peptide + Tobramycin, A. baumannii ABI001",0.50
same,FIC,"bacterial isolates; peptide + Tobramycin, P. aeruginosa PA022",0.56
same,FIC,"bacterial isolates; peptide + Tobramycin, S. aureus SA025 (also SA025 MRSA)",0.50
same,FIC,"bacterial isolates; peptide + Tobramycin, S. maltophilia SMA029",0.50
same,FIC,"bacterial isolates; peptide + Tobramycin, S. maltophilia SMA030",0.50
same,MIC,S. pneumoniae,128 µg/mL
same,Peptide MIC values,S. pneumoniae; S. pneumoniae 406LE8,128 µg/mL
same,Peptide MIC values,S. pneumoniae; S. pneumoniae 60120,>128 µg/mL
same,Peptide MIC values,S. pneumoniae; S. pneumoniae ATCC 49619,128 µg/mL
same,MIC,S. aureus,4 µg/mL
same,Peptide MIC values,S. aureus; S. aureus ATCC 29213,1 µg/mL
same,Peptide MIC values,S. aureus; S. aureus MRSA9,8 µg/mL
same,Peptide MIC values,S. aureus; S. aureus MRSA13,64 µg/mL
same,Peptide MIC values,S. aureus; S. aureus MRSA17,16 µg/mL
same,Peptide MIC values,S. aureus; S. aureus SA206,32 µg/mL
same,MIC,H. influenzae,>128 µg/mL
same,Peptide MIC + Tobramycin,[2]; S. aureus,2 µg/mL
same,Peptide MIC Alone,"[2]; S. aureus, Tobramycin section",4 µg/mL
same,FIC,"[2]; peptide + Tobramycin, S. aureus",0.50
same,Peptide MIC values,P. vulgaris,>128 µg/mL
same,MIC,P. aeruginosa; P. aeruginosa strain PA004,>128 µg/mL
same,Peptide MIC values,P. aeruginosa; P. aeruginosa ATCC 27853,>128 µg/mL
same,Peptide MIC values,P. aeruginosa; P. aeruginosa NCTC 10662,>128 µg/mL
ILKKWPWWPWRK [MBI 11B4CN],MIC,E. faecalis,16 µg/mL
same,MIC,S. maltophilia,64 µg/mL
same,Peptide MIC values,E. faecium,8 µg/mL
same,MIC,E. coli; E. coli strain ECO003,16 µg/mL
same,Peptide MIC values,E. coli; E. coli ATCC 25922,32 µg/mL
same,Peptide MIC values,E. coli; E. coli ESS,8 µg/mL
same,Peptide MIC values,E. coli; E. coli NCTC 10418,8 µg/mL
same,MIC,E. cloacae,>128 µg/mL
same,MIC,S. marcescens; S. marcescens strain SBSM2,>128 µg/mL
same,MIC,S. marcescens; S. marcescens strain SMS004,>128 µg/mL
same,Peptide MIC values,S. marcescens; S. marcescens SM76,>128 µg/mL
same,Peptide MIC values,S. marcescens; S. marcescens SM82,>128 µg/mL
same,Mupirocin MIC + Peptide,bacterial isolates; E. coli SBECO1,30 µg/mL
same,Peptide MIC + Mupirocin,bacterial isolates; E. coli SBECO1,0.5 µg/mL
same,Peptide MIC Alone,"bacterial isolates; E. coli SBECO1, Mupirocin section",8 µg/mL
same,Mupirocin MIC + Peptide,bacterial isolates; E. coli SBECO2,30 µg/mL
same,Peptide MIC + Mupirocin,bacterial isolates; E. coli SBECO2,2 µg/mL
same,Peptide MIC Alone,bacterial isolates; [3],32 µg/mL
same,FIC,"bacterial isolates; peptide + Mupirocin, E. coli SBECO1",0.36
same,FIC,bacterial isolates; [5],0.09
same,MIC,A. calcoaceticus,>128 µg/mL
same,MIC,S. pneumoniae,128 µg/mL
same,Peptide MIC values,S. pneumoniae; S. pneumoniae 406LE8,128 µg/mL
same,Peptide MIC values,S. pneumoniae; S. pneumoniae 60120,>128 µg/mL
same,Peptide MIC values,S. pneumoniae; S. pneumoniae ATCC 49619,64 µg/mL
same,MIC,S. aureus,2 µg/mL
same,Peptide MIC values,S. aureus; S. aureus ATCC 29213,1 µg/mL
same,Peptide MIC values,S. aureus; S. aureus MRSA9,4 µg/mL
same,Peptide MIC values,S. aureus; S. aureus MRSA13,32 µg/mL
same,Peptide MIC values,S. aureus; S. aureus MRSA17,8 µg/mL
same,Peptide MIC values,S. aureus; S. aureus SA206,16 µg/mL
same,MIC,H. influenzae,>128 µg/mL
same,Peptide MIC + Mupirocin,[2]; E. coli,8 µg/mL
same,Peptide MIC Alone,"[2]; E. coli, Mupirocin section",16 µg/mL
same,FIC,"[2]; peptide + Mupirocin, E. coli",0.53
same,Peptide MIC values,P. vulgaris,>128 µg/mL
same,MIC,S. epidermidis,4 µg/mL
same,MIC,P. aeruginosa; P. aeruginosa strain PA006,>128 µg/mL
same,Peptide MIC values,P. aeruginosa; P. aeruginosa ATCC 27853,>128 µg/mL
same,Peptide MIC values,P. aeruginosa; P. aeruginosa NCTC 10662,>128 µg/mL
same,MIC,K. pneumoniae,128 µg/mL
